The values that follow come from patent publication EP4653440A1, “HETEROCYCLIC COMPOUND, AND PHARMACEUTICAL COMPOSITION AND USE THEREOF” (Prime Gene Therapeutics Co., Ltd., priority 2023, dated 2024).

pIC50: −log10 of the molar value.

One assay deals with ROCK1 (Homo sapiens, UniProt Q13464). The assay can be described thus: ROCK1 kinase enzymatic activity (HTRF, STK2 substrate). It counts as biochemical. Particulars: ROCK1 kinase reaction 20 minutes at room temperature. The text has this: (§1) The kinase activity data was expressed by comparing the kinase activity of the test compound and that of the blank group (containing only DMSO), and the IC50 value was obtained by curve fitting using Prism software (GraphPad7.0).
Chain of ROCK1 (Q13464 whole entry): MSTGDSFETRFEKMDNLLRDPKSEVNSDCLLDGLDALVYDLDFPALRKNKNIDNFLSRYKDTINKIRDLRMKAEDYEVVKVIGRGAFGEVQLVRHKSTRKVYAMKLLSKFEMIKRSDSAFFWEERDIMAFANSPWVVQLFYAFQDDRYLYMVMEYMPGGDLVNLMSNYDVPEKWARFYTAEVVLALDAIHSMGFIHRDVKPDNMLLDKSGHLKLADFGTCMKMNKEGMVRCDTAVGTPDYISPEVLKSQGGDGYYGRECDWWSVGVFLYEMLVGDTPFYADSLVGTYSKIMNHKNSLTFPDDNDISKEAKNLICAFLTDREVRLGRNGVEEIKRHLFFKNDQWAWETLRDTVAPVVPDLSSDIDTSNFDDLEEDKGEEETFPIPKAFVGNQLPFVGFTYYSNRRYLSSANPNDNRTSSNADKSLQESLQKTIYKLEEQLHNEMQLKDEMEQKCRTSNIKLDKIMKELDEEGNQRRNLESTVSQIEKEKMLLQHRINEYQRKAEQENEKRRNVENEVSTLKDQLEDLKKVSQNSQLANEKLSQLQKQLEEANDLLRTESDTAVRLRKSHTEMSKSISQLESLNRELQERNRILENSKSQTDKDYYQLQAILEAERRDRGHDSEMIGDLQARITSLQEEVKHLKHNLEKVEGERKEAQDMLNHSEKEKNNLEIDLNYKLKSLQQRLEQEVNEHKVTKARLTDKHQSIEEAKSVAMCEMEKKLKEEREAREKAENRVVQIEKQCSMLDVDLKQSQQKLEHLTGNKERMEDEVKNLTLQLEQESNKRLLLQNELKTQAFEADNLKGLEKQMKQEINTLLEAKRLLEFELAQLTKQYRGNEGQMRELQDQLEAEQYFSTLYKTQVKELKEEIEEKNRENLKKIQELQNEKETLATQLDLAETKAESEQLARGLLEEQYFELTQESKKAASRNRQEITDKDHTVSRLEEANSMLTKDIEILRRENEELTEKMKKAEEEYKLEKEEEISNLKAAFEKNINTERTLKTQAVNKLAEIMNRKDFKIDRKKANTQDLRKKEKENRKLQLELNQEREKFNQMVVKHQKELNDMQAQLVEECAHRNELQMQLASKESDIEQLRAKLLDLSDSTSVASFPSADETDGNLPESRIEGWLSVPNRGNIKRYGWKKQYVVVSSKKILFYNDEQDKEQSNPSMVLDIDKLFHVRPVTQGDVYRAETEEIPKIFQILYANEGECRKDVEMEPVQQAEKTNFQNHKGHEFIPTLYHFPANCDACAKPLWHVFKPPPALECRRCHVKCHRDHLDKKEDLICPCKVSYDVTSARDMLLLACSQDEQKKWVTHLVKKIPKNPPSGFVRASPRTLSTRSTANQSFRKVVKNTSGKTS

For another assay, the target named is ROCK2 (Homo sapiens, UniProt O75116). Briefly: ROCK2 kinase enzymatic activity (HTRF, STK2 substrate). It counts as biochemical. Particulars: ROCK2 kinase reaction 30 minutes at room temperature.
Chain of ROCK2 (O75116 whole entry): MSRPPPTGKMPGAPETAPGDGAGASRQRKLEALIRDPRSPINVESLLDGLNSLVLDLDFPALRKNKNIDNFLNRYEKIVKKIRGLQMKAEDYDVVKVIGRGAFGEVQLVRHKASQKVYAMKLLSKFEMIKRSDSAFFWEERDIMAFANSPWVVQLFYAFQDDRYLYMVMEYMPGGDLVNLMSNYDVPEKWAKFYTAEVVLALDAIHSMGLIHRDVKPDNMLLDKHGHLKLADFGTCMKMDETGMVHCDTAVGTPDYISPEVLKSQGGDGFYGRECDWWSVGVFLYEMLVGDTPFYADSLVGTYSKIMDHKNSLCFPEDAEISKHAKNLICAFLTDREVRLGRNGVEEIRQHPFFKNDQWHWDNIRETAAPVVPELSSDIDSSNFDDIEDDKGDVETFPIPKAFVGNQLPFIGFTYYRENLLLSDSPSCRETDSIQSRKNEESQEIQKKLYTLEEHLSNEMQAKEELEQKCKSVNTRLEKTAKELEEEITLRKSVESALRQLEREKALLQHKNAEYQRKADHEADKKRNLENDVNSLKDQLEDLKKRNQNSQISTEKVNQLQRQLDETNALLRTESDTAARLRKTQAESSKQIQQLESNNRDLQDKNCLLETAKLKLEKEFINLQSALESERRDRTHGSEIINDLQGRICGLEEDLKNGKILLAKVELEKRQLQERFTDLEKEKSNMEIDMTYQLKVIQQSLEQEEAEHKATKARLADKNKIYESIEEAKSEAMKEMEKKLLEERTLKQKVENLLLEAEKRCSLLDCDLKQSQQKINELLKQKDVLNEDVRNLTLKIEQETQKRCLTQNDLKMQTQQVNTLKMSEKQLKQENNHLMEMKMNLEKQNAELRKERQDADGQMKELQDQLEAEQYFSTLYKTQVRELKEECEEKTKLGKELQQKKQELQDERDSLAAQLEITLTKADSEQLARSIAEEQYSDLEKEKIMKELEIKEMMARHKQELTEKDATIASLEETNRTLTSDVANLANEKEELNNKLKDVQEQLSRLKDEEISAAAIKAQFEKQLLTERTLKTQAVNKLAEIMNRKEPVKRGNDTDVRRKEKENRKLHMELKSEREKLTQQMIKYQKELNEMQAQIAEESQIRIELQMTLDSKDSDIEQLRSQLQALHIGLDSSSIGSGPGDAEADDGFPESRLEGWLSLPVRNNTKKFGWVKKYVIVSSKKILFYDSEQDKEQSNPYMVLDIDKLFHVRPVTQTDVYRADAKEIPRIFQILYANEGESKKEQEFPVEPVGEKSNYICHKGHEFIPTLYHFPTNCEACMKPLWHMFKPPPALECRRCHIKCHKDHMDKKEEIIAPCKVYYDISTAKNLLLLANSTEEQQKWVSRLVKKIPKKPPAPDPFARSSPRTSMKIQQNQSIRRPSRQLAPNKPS
From the text: as §1

Assay [1] deals with phosphorylation of myosin light chain T18/S19. The assay can be described thus: In Cell Western for phosphorylation of myosin light chain in A7r5 cells. The assay is classed as cell-based, rat. The text has this: The rat smooth muscle cell line A7r5 was used, and the A7r5 cell culture conditions were DMEM containing 10% FBS. Phspho-MLC-T18/S19 specific antibody and a second detection antibody were used to detect the phosphorylation level of myosin light chain by In Cell Western. Cells treated with positive compounds were used as positive controls, while the group without compounds but with compound solvents was used as negative controls. DRAQ5 stained cell nuclei were used as internal references. GraphPad Prism 7.0 software was used, and fitting was carried out by using a non-linear regression curve with varying slopes to determine the absolute IC50 value.
On the first day, A7r5 cells were resuspended in serum-free medium and seeded into 384 wells of PDL coated transparent black plates at a density of 5000 cells per well. Serum starvation culture was performed for 4 hours, and the cells were incubated with the compound in serum-free medium for 1 hour. 50 µL of 8% PFA (polyformaldehyde) was added to each well and fixed at room temperature for 1 hour. The liquid in the wells was discard and 90 µL of ice methanol was added to each well to permeabilize the cells at 4 °C for 1 hour. Then, PBST (0.1% Tween20-PBS) was added using an automatic separator to wash three times. After patting the plate for drying, 50 µL blocking solution was added to each well for sealing at room temperature for 1 hour. The phspho-MLC-T18/S19 specific antibody was diluted with the blocking solution at a ratio of 1:200. After adding 20 µL to each well, incubation was carried out overnight at 4 °C with a sealed film.
On the second day, the liquid in the wells was discarded and PBST was added using an automatic separator to wash the plate 5 times. After patting the plate for drying, the second detection antibody was diluted with blocking solution at a ratio of 1:800 and DRAQ5 at a ratio of 1:1000. After adding 20 µL to each well, incubation was carried out at room temperature for 1 hour. Then, the liquid in the wells was discarded and PBST was added using an automatic separator to wash the plate 3 times, followed by adding ddH2O to wash the plate 3 times. After patting the plate for drying, it was scaned using a LICOR Odyssey near-infrared imaging scanner.

Take `N#CC[C@]1(n2cc(-c3ncnc4[nH]ccc34)c(N)n2)C[C@@H](C#N)C1` [Example 11, (1s,3s)-3-(3-amino-4-(7H-pyrrolo[2,3-d]pyrimidin-4-yl)-1H-pyrazol-1-yl)-3-(cyanomethyl)cyclobutane-1-carbonitrile]: the IC50 on ROCK1 and against ROCK2 was < 10 nM throughout. The compound also showed a pIC50 in assay [1] (Rattus norvegicus, A7R5, 1 h) of 6.33.
Regarding `N#CC[C@@H](C1CC1)n1cc(-c2ncnc3[nH]ccc23)c(N)n1` [Example 26, (S)-3-(3-amino-4-(7H-pyrrolo[2,3-d]pyrimidin-4-yl)-1H-pyrazol-1-yl)-3-cyclopropylpropionitrile], the results for the IC50 on ROCK1 and against ROCK2 were < 5 nM and < 2 nM, respectively. Further, the negative logarithm of the IC50 (pIC50) in assay [1] (Rattus norvegicus, A7R5, 1 h) is 7.06.
In the case of `N#CCC(C1CCC2(CC2)C1)n1cc(-c2ncnc3[nH]ccc23)c(N)n1` (stereo not shown) [Example 23, 3-(3-amino-4-(7H-pyrrolo[2,3-d]pyrimidin-4-yl)-1H-pyrazol-1-yl)-3-(spiro[2.4]hept-5-yl)propionitrile], the IC50 against ROCK1 and on ROCK2 was < 5 nM in each case. In assay [1] (Rattus norvegicus, A7R5, 1 h), the pIC50 is 6.71.
As to `N#CCC(C1CC2CC2C1)n1cc(-c2ncnc3[nH]ccc23)c(N)n1` (stereo not shown) [Example 24, 3-(3-amino-4-(7H-pyrrolo[2,3-d]pyrimidin-4-yl)-1H-pyrazol-1-yl)-3-(bicyclo[3.1.0]hexyl-3-yl)propionitrile], the IC50 against ROCK1 and at ROCK2 was < 5 nM throughout. The compound further showed a pIC50 in assay [1] (Rattus norvegicus, A7R5, 1 h) of 6.67.
For `CC1CC([C@H](CC#N)n2cc(-c3ncnc4[nH]ccc34)c(N)n2)C1` (stereo partly drawn) [Example 17, (3S)-3-(3-amino-4-(7H-pyrrolo[2,3-d]pyrimidin-4-yl)-1H-pyrazol-1-yl)-3-(-3-methylcyclobutyl)propanitrile], the IC50 against ROCK1 and against ROCK2 was < 5 nM each time. In assay [1] (Rattus norvegicus, A7R5, 1 h), this compound showed a pIC50 of 6.65.
On to `N#CC[C@@H](C1CCC1)n1cc(-c2ncnc3[nH]ccc23)c(N)n1` [Example 28, (S)-3-(3-amino-4-(7H-pyrrolo[2,3-d]pyrimidin-4-yl)-1H-pyrazol-1-yl)-3-cyclobutylpropionitrile], for which the IC50 on ROCK1 and against ROCK2 was < 5 nM in each case. Moreover, the pIC50 in assay [1] (Rattus norvegicus, A7R5, 1 h) is 6.92.
In the case of `CC1(C)CC(C(CC#N)n2cc(-c3ncnc4[nH]ccc34)c(N)n2)C1` (stereo not shown) [Example 15, 3-(3-amino-4-(7H-pyrrolo[2,3-d]pyrimidin-4-yl)-1H-pyrazol-1-yl)-3-(3,3-dimethylcyclobutyl)propionitrile], the IC50 at ROCK1 and on ROCK2 was < 5 nM in each case. In assay [1] (Rattus norvegicus, A7R5, 1 h), the pIC50 was 6.67.
In the case of `N#CCC1(n2cc(-c3ncnc4[nH]ccc34)c(N)n2)CCS(=O)(=O)C1` (stereo not shown) [Example 3, 2-(3-(3-amino-4-(7H-pyrrolo[2,3-d]pyrimidin-4-yl)-1H-pyrazol-1-yl)-1,1-dioxotetrahydrothiophen-3-yl)acetonitrile], the IC50 was < 2 nM against ROCK1 and < 1 nM on ROCK2. Moreover, the negative logarithm of the IC50 (pIC50) in assay [1] (Rattus norvegicus, A7R5, 1 h) is 7.11.
For `N#CCC(C1CC2(CCC2)C1)n1cc(-c2ncnc3[nH]ccc23)c(N)n1` (stereo not shown) [Example 20, 3-(3-amino-4-(7H-pyrrolo[2,3-d]pyrimidin-4-yl)-1H-pyrazol-1-yl)-3-(spiro[3.3]heptan-2-yl)propionitrile] the same measures were < 5 nM, < 5 nM and 6.66.
For `N#CCC1(n2cc(-c3ncnc4[nH]ccc34)c(N)n2)CCCCC1` [Example 5, 2-(1-(3-amino-4-(7H-pyrrolo[2,3-d]pyrimidin-4-yl)-1H-pyrazol-1-yl)cyclohexyl)acetonitrile] the same measures were < 5 nM, < 5 nM and 6.95.
As to `N#CCC(C1CC1)n1cc(-c2ncnc3[nH]ccc23)c(N)n1` (stereo not shown) [Example 12, 3-(3-amino-4-(7H-pyrrolo[2,3-d]pyrimidin-4-yl)-1H-pyrazol-1-yl)-3-cyclopropylpropanitrile], the IC50 against ROCK1 is < 5 nM; on ROCK2 it was < 2 nM. In assay [1] (Rattus norvegicus, A7R5, 1 h), this compound gave a pIC50 of 7.07.
Turning to `N#CCC(C1CC2(CCCC2)C1)n1cc(-c2ncnc3[nH]ccc23)c(N)n1` (stereo not shown) [Example 22, 3-(3-amino-4-(7H-pyrrolo[2,3-d]pyrimidin-4-yl)-1H-pyrazol-1-yl)-3-(spiro[3.4]octan-2-yl)propionitrile], the IC50 against ROCK1 and at ROCK2 was < 5 nM each time. The compound further had a pIC50 in assay [1] (Rattus norvegicus, A7R5, 1 h) of 6.58.
In the case of `N#CC[C@H](C1CC1)n1cc(-c2ncnc3[nH]ccc23)c(N)n1` [Example 25, (R)-3-(3-amino-4-(7H-pyrrolo[2,3-d]pyrimidin-4-yl)-1H-pyrazol-1-yl)-3-cyclopropylpropionitrile], the IC50 at ROCK1 is < 5 nM; on ROCK2, < 2 nM. Moreover, the pIC50 in assay [1] (Rattus norvegicus, A7R5, 1 h) is 7.12.
On to `N#CCC1(n2cc(-c3ncnc4[nH]ccc34)c(N)n2)CC2(CCC2)C1` [Example 19, 2-(2-(3-amino-4-(7H-pyrrolo[2,3-d]pyrimidin-4-yl)-1H-pyrazol-1-yl)spiro[3.3]heptan-2-yl)acetonitrile], for which the IC50 on ROCK1 and at ROCK2 was < 5 nM in each case. In assay [1] (Rattus norvegicus, A7R5, 1 h), this compound gave a pIC50 of 6.78.
In the case of `N#CCC1(n2cc(-c3ncnc4[nH]ccc34)c(N)n2)CCCC1` [Example 4, 2-(1-(3-amino-4-(7H-pyrrolo[2,3-d]pyrimidin-4-yl)-1H-pyrazol-1-yl)cyclopentyl)acetonitrile], the half-inhibitory concentration (IC50) on ROCK1 and against ROCK2 was < 10 nM throughout. For the same compound, the pIC50 in assay [1] (Rattus norvegicus, A7R5, 1 h) was 6.80.
Turning to `CC1CC([C@@H](CC#N)n2cc(-c3ncnc4[nH]ccc34)c(N)n2)C1` (stereo partly drawn) [Example 18, (3R)-3-(3-amino-4-(7H-pyrrolo[2,3-d]pyrimidin-4-yl)-1H-pyrazol-1-yl)-3-(-3-methylcyclobutyl)propanitrile], the concentration for half-maximal inhibition (IC50) at ROCK1 and on ROCK2 was < 5 nM throughout. The compound further gave a pIC50 in assay [1] (Rattus norvegicus, A7R5, 1 h) of 6.53.
Consider `N#CCC1(n2cc(-c3ncnc4[nH]ccc34)c(N)n2)CC(C#N)C1` (stereo not shown) [Example 9, 3-(3-amino-4-(7H-pyrrolo[2,3-d]pyrimidin-4-yl)-1H-pyrazol-1-yl)-3-(cyanomethyl)cyclobutane-1-carbonitrile], for which the IC50 on ROCK1 and against ROCK2 was < 10 nM in each case. In assay [1] (Rattus norvegicus, A7R5, 1 h), this compound gave a pIC50 of 7.17.
For the compound `N#CCC1(n2cc(-c3ncnc4[nH]ccc34)c(N)n2)CC(F)(F)C1` [Example 6, 2-(1-(3-amino-4-(7H-pyrrolo[2,3-d]pyrimidin-4-yl)-1H-pyrazol-1-yl)-3,3-difluorocyclobutyl)acetonitrile], the concentration for half-maximal inhibition (IC50) on ROCK1 and against ROCK2 was < 5 nM each time. Besides, the pIC50 in assay [1] (Rattus norvegicus, A7R5, 1 h) was 6.99.
In the case of `CC1CC(C(CC#N)n2cc(-c3ncnc4[nH]ccc34)c(N)n2)C1` (stereo not shown) [Example 16, 3-(3-amino-4-(7H-pyrrolo[2,3-d]pyrimidin-4-yl)-1H-pyrazol-1-yl)-3-(3-methylcyclobutyl)propanitrile], the IC50 against ROCK1 and against ROCK2 was < 5 nM throughout. The compound also showed a pIC50 in assay [1] (Rattus norvegicus, A7R5, 1 h) of 6.55.
On to `N#CC1CCCCC1n1cc(-c2ncnc3[nH]ccc23)c(N)n1` (stereo not shown) [Example 8, 2-(3-amino-4-(7H-pyrrolo[2,3-d]pyrimidin-4-yl)-1H-pyrazol-1-yl)cyclohexane-1-nitrile], for which the 50% inhibitory concentration (IC50) at ROCK1 and against ROCK2 was < 50 nM in each case. This compound also had a pIC50 in assay [1] (Rattus norvegicus, A7R5, 1 h) of 5.71.
For the compound `N#CCC1(n2cc(-c3ncnc4[nH]ccc34)c(N)n2)CS(=O)(=O)C1` [Example 2, 2-(3-(3-amino-4-(7H-pyrrolo[2,3-d]pyrimidin-4-yl)-1H-pyrazol-1-yl)-1,1-dioxothietan-3-yl)acetonitrile], the IC50 on ROCK1 is < 2 nM; on ROCK2, < 1 nM. The compound also showed a pIC50 in assay [1] (Rattus norvegicus, A7R5, 1 h) of 7.07.
Compound `Cc1ccc(C(=O)OCc2ccc([C@@H](CN)C(=O)Nc3ccc4cnccc4c3)cc2)c(C)c1` [Netarsudil, reference compound] showed a pIC50 in assay [1] (rat smooth muscle cell line A7r5, 1 hour compound incubation in serum-free medium, absolute IC50) of 6.54.
Consider `N#CCC(C1CCC1)n1cc(-c2ncnc3[nH]ccc23)c(N)n1` (stereo not shown) [Example 13, 3-(3-amino-4-(7H-pyrrolo[2,3-d]pyrimidin-4-yl)-1H-pyrazol-1-yl)-3-cyclobutylpropionitrile], for which the IC50 at ROCK1 and on ROCK2 was < 5 nM throughout. For the same compound, the pIC50 in assay [1] (Rattus norvegicus, A7R5, 1 h) was 6.91.
In assay [1] (Rattus norvegicus, A7R5, 1 h), `CC(C)NC(=O)COc1cccc(-c2nc(Nc3ccc4[nH]ncc4c3)c3ccccc3n2)c1` [Belumosudil, reference compound] showed a negative-log IC50 (pIC50) of 5.40.
In turn, `C[C@H]1CNCCCN1S(=O)(=O)c1cccc2cncc(F)c12` [Ripasudil, reference compound] yielded a half-inhibitory concentration (IC50) on ROCK2 of 29.6 nM. In assay [1] (Rattus norvegicus, A7R5, 1 h), this compound had a pIC50 of 5.77.
